Experimental data as given in PMC11726445 (RSC Advances, 2025).
Converted amounts (≈) assume the structure as drawn.

What was measured:
Format in all cases: cell-based
Bacillus subtilis [1] = assay: Bacterial lipid peroxidation; conditions: treated at the MIC level
Salmonella typhimurium [2] = assay: Biofilm inhibition, crystal violet method
Staphylococcus aureus [3] = assay: Biofilm inhibition, crystal violet method
Klebsiella pneumonia [4] = assay: MIC, broth microdilution; conditions: Klebsiella pneumoniae
Candida albicans = assay: MIC, broth microdilution
Bacillus subtilis [5] = assay: MIC, broth microdilution
Salmonella typhimurium [6] = assay: Bacterial lipid peroxidation; conditions: treated at the MIC level
Klebsiella pneumonia [7] = assay: Bacterial lipid peroxidation; conditions: treated at the MIC level
Staphylococcus aureus [8] = assay: MIC, broth microdilution
Bacillus subtilis [9] = assay: Biofilm inhibition, crystal violet method
Klebsiella pneumonia [10] = assay: Biofilm inhibition, crystal violet method
Pseudomonas aeruginosa [11] = assay: MIC, broth microdilution
Pseudomonas aeruginosa [12] = assay: Biofilm inhibition, crystal violet method
Pseudomonas aeruginosa [13] = assay: Bacterial lipid peroxidation; conditions: treated at the MIC level
Staphylococcus aureus [14] = assay: Bacterial lipid peroxidation; conditions: treated at the MIC level

SMILES	MIC (Klebsiella pneumonia [4]) [µg/mL]	MIC (Candida albicans) [µg/mL]	MIC (Bacillus subtilis [5]) [µg/mL]	MIC (Staphylococcus aureus [8]) [µg/mL]	MIC (Pseudomonas aeruginosa [11]) [µg/mL]	Efficacy (MIC) relative to Sulfadiazine (Staphylococcus aureus [8]) [fold]	Lipid peroxidation efficiency (Bacillus subtilis [1]) [%]	Biofilm inhibition (Salmonella typhimurium [2]) [%]	Biofilm inhibition (Staphylococcus aureus [3]) [%]	Lipid peroxidation efficiency (Salmonella typhimurium [6]) [%]	Lipid peroxidation efficiency (Klebsiella pneumonia [7]) [%]	Biofilm inhibition (Bacillus subtilis [9]) [%]	Biofilm inhibition (Klebsiella pneumonia [10]) [%]	Biofilm inhibition (Pseudomonas aeruginosa [12]) [%]	Lipid peroxidation efficiency (Pseudomonas aeruginosa [13]) [%]	Lipid peroxidation efficiency (Staphylococcus aureus [14]) [%]
CCS(=O)(=O)Oc1ccc(C=NNC(=O)CSc2nc3ccc(Cl)cc3c(=O)n2-c2ccccc2)cc1 [5k, 4-((2-(2-((6-Chloro-4-oxo-3-phenyl-3,4-dihydroquinazolin-2-yl)thio)acetyl)-hydrazono)methyl)phenyl ethanesulfonate]	44 ± 1.88	10 ± 2.55	49 ± 2.77	52 ± 0.28	97 ± 3.88		377.6 ± 3.44	61.9 ± 1.72	42.9 ± 2.62	278.3 ± 5.07	295.2 ± 1.89	63.7 ± 0.92	53.1 ± 2.12	38.7 ± 3.66	181.3 ± 6.06	202.2 ± 2.17
Nc1ccc(S(=O)(=O)Nc2ncccn2)cc1 [Sulfadiazine, reference compound]	47 ± 3.18 (≈ 188 µM)	72 ± 3.44 (≈ 288 µM)	46 ± 4.18 (≈ 184 µM)	24 ± 3.92 (≈ 95.9 µM)	70 ± 4.99 (≈ 280 µM)											
O=C(O)c1cn(C2CC2)c2cc(N3CCNCC3)c(F)cc2c1=O [Ciprofloxacin, reference compound]							417.7 ± 2.83	58.3 ± 4.02	30.9 ± 4.52	294.8 ± 1.99	327.4 ± 4.42	49.2 ± 1.16	40.8 ± 3.88	45.2 ± 1.18	346.3 ± 2.62	319.8 ± 3.26

Further lines, with some results ahead:

MIC (Klebsiella pneumonia [4]) [µg/mL]	MIC (Candida albicans) [µg/mL]	MIC (Bacillus subtilis [5]) [µg/mL]	MIC (Staphylococcus aureus [8]) [µg/mL]	MIC (Pseudomonas aeruginosa [11]) [µg/mL]	Efficacy (MIC) relative to Sulfadiazine (Staphylococcus aureus [8]) [fold]	SMILES	Lipid peroxidation efficiency (Bacillus subtilis [1]) [%]	Biofilm inhibition (Salmonella typhimurium [2]) [%]	Biofilm inhibition (Staphylococcus aureus [3]) [%]	Lipid peroxidation efficiency (Salmonella typhimurium [6]) [%]	Lipid peroxidation efficiency (Klebsiella pneumonia [7]) [%]	Biofilm inhibition (Bacillus subtilis [9]) [%]	Biofilm inhibition (Klebsiella pneumonia [10]) [%]	Biofilm inhibition (Pseudomonas aeruginosa [12]) [%]	Lipid peroxidation efficiency (Pseudomonas aeruginosa [13]) [%]	Lipid peroxidation efficiency (Staphylococcus aureus [14]) [%]
99 ± 5.02	9 ± 3.17	48 ± 2.25	11.3 ± 2.38	96 ± 4.83	2	COc1ccc(C=NNC(=O)CSc2nc3c(C)cccc3c(=O)n2-c2ccccc2)cc1OS(C)(=O)=O [5g, 2-Methoxy-5-((2-(2-((8-methyl-4-oxo-3-phenyl-3,4-dihydroquinazolin-2-yl)thio)-acetyl)hydrazono)methyl)phenyl methanesulfonate]	219.7 ± 2.71	33.9 ± 2.94	34.7 ± 4.02	210.4 ± 4.66	285.2 ± 1.44	45.1 ± 2.72	32.8 ± 1.92	20.1 ± 2.32	175.2 ± 3.29	118.4 ± 2.26
22 ± 4.72 (≈ 37.9 µM)	48 ± 4.18 (≈ 82.7 µM)	23 ± 2.21 (≈ 39.6 µM)	50 ± 0.88 (≈ 86.1 µM)	45 ± 6.11 (≈ 77.5 µM)		CCCS(=O)(=O)Oc1ccc(C=NNC(=O)CSc2nc3c(C)cccc3c(=O)n2-c2ccccc2)cc1OC [5f, 2-Methoxy-4-((2-(2-((8-methyl-4-oxo-3-phenyl-3,4-dihydroquinazolin-2-yl)thio)-acetyl)hydrazono)methyl)phenyl propane-1-sulfonate]	212.5 ± 5.52	37.4 ± 1.82	45.1 ± 1.62	273.1 ± 4.33	230.4 ± 2.12	56.4 ± 3.12	59.6 ± 2.22	34.8 ± 4.07	140.4 ± 5.02	151.2 ± 1.92
